What was measured:
Type in all cases: biochemical, Campylobacter jejuni 11168
[1] = target: T1, His6LegG (Cj1328, NDP-sugar hydrolase/2-epimerase) (Campylobacter jejuni subsp. jejuni serotype O:2, UniProt Q0P8T0); test: His6LegG activity and substrate flexibility (1H NMR, CE)
T1 construct: made in house; host or cells: E. coli BL21[DE3]
Experimental: Enzymatic reactions were performed for 4.5 h at 37° C., and then overnight at 25° C., with approximately 200 μg ml^−1 respective protein concentration using chemicals from Sigma (unless otherwise indicated). GDP-glucosamine biosynthesis. The ‘one-pot’ enzymatic synthesis of GDP-GlcN from Fru-6-P (I→IV) was accomplished using a 3 ml reaction containing His6PtmF, PtmAHis6, PgmLHis6, His6PtmE, 5 mM Fru-6-P (I), 10 mM L-Gln, 1 mM DTT, 5 mM MgCl2, 0.8 U ml^−1 pyrophosphatase, and 2.5 mM GTP in 25 mM Tris pH 7.5. Large-scale enzymatic synthesis of GDP-GlcN (IV) was accomplished using a 12 ml reaction containing 50 mM Tris pH 7.5, 1 mM GTP, 1 mM MgCl2, 0.8 U ml^−1 pyrophosphatase, 1.2 mM GlcN-1-P (III) and approximately 4.8 mg of His6PtmE. The large-scale enzymatic synthesis of GDP-GlcNAc was performed similar to that above, except the scale was increased five-fold and GlcNAc-1-P was used in place of GlcN-1-P (III). Assessment of His6PtmE substrate specificity was accomplished using 9 reactions, 80 μl each, containing 50 mM Tris pH 7.5, 2 mM MgCl2, 50 μg His6PtmE, and various combinations of 10 mM sugar-1-P (GalN-1-P, GlcN-1-P or GlcNAc-1-P) and 0.2 mM NTP (CTP, GTP, or TTP). Conversion of GDP-GlcN to GDP-GlcNAc. The His6GlmU reaction was performed using 1 mM GDP-GlcN (IV), 1.2 mM acetyl-CoA and His6GlmU in 25 mM sodium phosphate pH 7.8, 25 mM NaCl, 10 mM β-mercaptoethanol. In addition, a control reaction was performed containing 1 mM GlcN-1-P (III) instead of IV. Biosynthesis of legionaminic acid from GDP-GlcNAc. The stepwise enzymatic synthesis of intermediates or products was accomplished in 2 stages (V→VI→VII→VIII, and then VIII→IX→X) using 1 mM of V, 0.5 mM NAD, 0.8 mM PLP, 8 mM L-Glu, 1.2 mM acetyl-CoA, 1.2 mM PEP, LegBHis6, His6LegC, His6LegH, His6LegG, and His6LegI as appropriate, in 25 mM sodium phosphate pH 7.3, 25 mM NaCl. Assessment of His6LegG activity involved monitoring the reaction kinetics by ^1H NMR (see NMR spectroscopy) for 75 min using 0.75 mM GDP-2,4-diacetamido-2,4,6-trideoxy-α-D-Glc (VIII), 4 μg His6LegG in 200 μl of 25 mM sodium phosphate pH 7.3, 25 mM NaCl at 25° C. In addition, the substrate flexibility of His6LegG was assessed using a 300 μl reaction containing 40 μg His6LegG, 25 mM sodium phosphate pH 7.3, 25 mM NaCl, and 0.75 mM UDP-2,4-diacetamido-2,4,6-trideoxy-α-D-Glc, with incubation at 37° C. for 1.5 h, and then overnight at 25° C. Biosynthesis of CMP-legionaminic acid. […] Quantification of NDP-sugar preparations was determined using the molar extinction coefficients of CMP (ε260=7,400), GDP (ε260=11,500), TDP (ε260=8,700), and UDP (ε260=10,000). […]

[2] = system: His6PtmE (Cj1329, nucleotidyltransferase); test: His6PtmE substrate specificity (sugar-1-P acceptors and NTP donors); settings: for PtmE activity with sugar-1-P acceptor: 10 mM sugar-1-P, 0.2 mM NTP, 30 min at 37° C.
Experimental: […] GDP-glucosamine biosynthesis. The ‘one-pot’ enzymatic synthesis of GDP-GlcN from Fru-6-P (I→IV) was accomplished using a 3 ml reaction containing His6PtmF, PtmAHis6, PgmLHis6, His6PtmE, 5 mM Fru-6-P (I), 10 mM L-Gln, 1 mM DTT, 5 mM MgCl2, 0.8 U ml^−1 pyrophosphatase, and 2.5 mM GTP in 25 mM Tris pH 7.5. Large-scale enzymatic synthesis of GDP-GlcN (IV) was accomplished using a 12 ml reaction containing 50 mM Tris pH 7.5, 1 mM GTP, 1 mM MgCl2, 0.8 U ml^−1 pyrophosphatase, 1.2 mM GlcN-1-P (III) and approximately 4.8 mg of His6PtmE. The large-scale enzymatic synthesis of GDP-GlcNAc was performed similar to that above, except the scale was increased five-fold and GlcNAc-1-P was used in place of GlcN-1-P (III). Assessment of His6PtmE substrate specificity was accomplished using 9 reactions, 80 μl each, containing 50 mM Tris pH 7.5, 2 mM MgCl2, 50 μg His6PtmE, and various combinations of 10 mM sugar-1-P (GalN-1-P, GlcN-1-P or GlcNAc-1-P) and 0.2 mM NTP (CTP, GTP, or TTP). Conversion of GDP-GlcN to GDP-GlcNAc. The His6GlmU reaction was performed using 1 mM GDP-GlcN (IV), 1.2 mM acetyl-CoA and His6GlmU in 25 mM sodium phosphate pH 7.8, 25 mM NaCl, 10 mM β-mercaptoethanol. In addition, a control reaction was performed containing 1 mM GlcN-1-P (III) instead of IV. Biosynthesis of legionaminic acid from GDP-GlcNAc. The stepwise enzymatic synthesis of intermediates or products was accomplished in 2 stages (V→VI→VII→VIII, and then VIII→IX→X) using 1 mM of V, 0.5 mM NAD, 0.8 mM PLP, 8 mM L-Glu, 1.2 mM acetyl-CoA, 1.2 mM PEP, LegBHis6, His6LegC, His6LegH, His6LegG, and His6LegI as appropriate, in 25 mM sodium phosphate pH 7.3, 25 mM NaCl. Assessment of His6LegG activity involved monitoring the reaction kinetics by ^1H NMR (see NMR spectroscopy) for 75 min using 0.75 mM GDP-2,4-diacetamido-2,4,6-trideoxy-α-D-Glc (VIII), 4 μg His6LegG in 200 μl of 25 mM sodium phosphate pH 7.3, 25 mM NaCl at 25° C. In addition, the substrate flexibility of His6LegG was assessed using a 300 μl reaction containing 40 μg His6LegG, 25 mM sodium phosphate pH 7.3, 25 mM NaCl, and 0.75 mM UDP-2,4-diacetamido-2,4,6-trideoxy-α-D-Glc, with incubation at 37° C. for 1.5 h, and then overnight at 25° C. Biosynthesis of CMP-legionaminic acid. The CMP-activation of legionaminic acid (X→XI) was performed using a 20 ml reaction containing approximately 0.2 mM of X, 50 mM MgCl2, 3 mM CTP, and 15 mg of LegFHis6 in 25 mM sodium phosphate pH 7.8, 25 mM NaCl, with incubation at 37° C. for 5 h, and then 25° C. for 72 h. Metabolite purification. Typically, reactions were passed through an Amicon Ultra-15 (10,000 molecular weight cut-off) or Ultra-4 (5,000 molecular weight cut-off) filter membrane before analysis. As required, NDP-sugar preparations (GDP-Glc, GDP-GlcN, GDP-GlcNAc, CDP-GlcNAc, TDP-GlcNAc, and CMP-Leg) were lyophilized and desalted/purified using a Superdex Peptide 10/300 GL (Amersham Biosciences) column in 25 mM ammonium bicarbonate, pH 7.9. For further purity, the NDP-sugar samples above were subjected to anion-exchange chromatography (Mono Q 4.6/100 PE, Amersham Biosciences) using ammonium bicarbonate pH 7.9. Quantification of NDP-sugar preparations was determined using the molar extinction coefficients of CMP (ε260=7,400), GDP (ε260=11,500), TDP (ε260=8,700), and UDP (ε260=10,000).
(§1) CE analysis was performed using either a P/ACE 5510 or P/ACE MDQ system (Beckman Instruments, Mississauga, Ont) with diode array detection. The capillaries were bare silica 50 μm×50 cm, with a detector at 50 cm, and the running buffer was 25 mM sodium tetraborate pH 9.4. Samples were introduced by pressure injection for 6 sec, and the separation was performed at 18 kV for 20 min. Peak integration was done using the Beckman P/ACE station software.

[3] = system: LegB (Cj1319, 4,6-dehydratase); test: LegB C4,6 dehydratase reaction with NDP-sugars
Experimental: Enzymatic reactions were performed for 4.5 h at 37° C., and then overnight at 25° C., with approximately 200 μg ml^−1 respective protein concentration using chemicals from Sigma (unless otherwise indicated). GDP-glucosamine biosynthesis. The ‘one-pot’ enzymatic synthesis of GDP-GlcN from Fru-6-P (I→IV) was accomplished using a 3 ml reaction containing His6PtmF, PtmAHis6, PgmLHis6, His6PtmE, 5 mM Fru-6-P (I), 10 mM L-Gln, 1 mM DTT, 5 mM MgCl2, 0.8 U ml^−1 pyrophosphatase, and 2.5 mM GTP in 25 mM Tris pH 7.5. Large-scale enzymatic synthesis of GDP-GlcN (IV) was accomplished using a 12 ml reaction containing 50 mM Tris pH 7.5, 1 mM GTP, 1 mM MgCl2, 0.8 U ml^−1 pyrophosphatase, 1.2 mM GlcN-1-P (III) and approximately 4.8 mg of His6PtmE. The large-scale enzymatic synthesis of GDP-GlcNAc was performed similar to that above, except the scale was increased five-fold and GlcNAc-1-P was used in place of GlcN-1-P (III). Assessment of His6PtmE substrate specificity was accomplished using 9 reactions, 80 μl each, containing 50 mM Tris pH 7.5, 2 mM MgCl2, 50 μg His6PtmE, and various combinations of 10 mM sugar-1-P (GalN-1-P, GlcN-1-P or GlcNAc-1-P) and 0.2 mM NTP (CTP, GTP, or TTP). Conversion of GDP-GlcN to GDP-GlcNAc. The His6GlmU reaction was performed using 1 mM GDP-GlcN (IV), 1.2 mM acetyl-CoA and His6GlmU in 25 mM sodium phosphate pH 7.8, 25 mM NaCl, 10 mM β-mercaptoethanol. In addition, a control reaction was performed containing 1 mM GlcN-1-P (III) instead of IV. Biosynthesis of legionaminic acid from GDP-GlcNAc. The stepwise enzymatic synthesis of intermediates or products was accomplished in 2 stages (V→VI→VII→VIII, and then VIII→IX→X) using 1 mM of V, 0.5 mM NAD, 0.8 mM PLP, 8 mM L-Glu, 1.2 mM acetyl-CoA, 1.2 mM PEP, LegBHis6, His6LegC, His6LegH, His6LegG, and His6LegI as appropriate, in 25 mM sodium phosphate pH 7.3, 25 mM NaCl. Assessment of His6LegG activity involved monitoring the reaction kinetics by ^1H NMR (see NMR spectroscopy) for 75 min using 0.75 mM GDP-2,4-diacetamido-2,4,6-trideoxy-α-D-Glc (VIII), 4 μg His6LegG in 200 μl of 25 mM sodium phosphate pH 7.3, 25 mM NaCl at 25° C. In addition, the substrate flexibility of His6LegG was assessed using a 300 μl reaction containing 40 μg His6LegG, 25 mM sodium phosphate pH 7.3, 25 mM NaCl, and 0.75 mM UDP-2,4-diacetamido-2,4,6-trideoxy-α-D-Glc, with incubation at 37° C. for 1.5 h, and then overnight at 25° C. Biosynthesis of CMP-legionaminic acid. The CMP-activation of legionaminic acid (X→XI) was performed using a 20 ml reaction containing approximately 0.2 mM of X, 50 mM MgCl2, 3 mM CTP, and 15 mg of LegFHis6 in 25 mM sodium phosphate pH 7.8, 25 mM NaCl, with incubation at 37° C. for 5 h, and then 25° C. for 72 h. Metabolite purification. Typically, reactions were passed through an Amicon Ultra-15 (10,000 molecular weight cut-off) or Ultra-4 (5,000 molecular weight cut-off) filter membrane before analysis. As required, NDP-sugar preparations (GDP-Glc, GDP-GlcN, GDP-GlcNAc, CDP-GlcNAc, TDP-GlcNAc, and CMP-Leg) were lyophilized and desalted/purified using a Superdex Peptide 10/300 GL (Amersham Biosciences) column in 25 mM ammonium bicarbonate, pH 7.9. For further purity, the NDP-sugar samples above were subjected to anion-exchange chromatography (Mono Q 4.6/100 PE, Amersham Biosciences) using ammonium bicarbonate pH 7.9. Quantification of NDP-sugar preparations was determined using the molar extinction coefficients of CMP (ε260=7,400), GDP (ε260=11,500), TDP (ε260=8,700), and UDP (ε260=10,000).
as §1

T1 sequence (Q0P8T0 whole entry): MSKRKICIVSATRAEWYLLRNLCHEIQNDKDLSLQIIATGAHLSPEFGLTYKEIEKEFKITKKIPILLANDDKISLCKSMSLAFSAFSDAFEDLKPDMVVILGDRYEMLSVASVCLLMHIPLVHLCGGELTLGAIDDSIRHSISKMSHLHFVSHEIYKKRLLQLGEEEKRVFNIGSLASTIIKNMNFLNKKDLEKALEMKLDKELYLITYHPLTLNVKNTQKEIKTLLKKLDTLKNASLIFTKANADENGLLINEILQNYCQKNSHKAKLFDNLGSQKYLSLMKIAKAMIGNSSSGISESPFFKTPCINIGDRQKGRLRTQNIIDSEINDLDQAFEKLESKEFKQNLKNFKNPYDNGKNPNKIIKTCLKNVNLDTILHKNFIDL

CC(=O)N[C@H]1[C@@H](OP(=O)(O)OP(=O)(O)OC[C@H]2O[C@@H](n3ccc(=O)[nH]c3=O)[C@H](O)[C@@H]2O)O[C@H](C)[C@@H](NC(C)=O)[C@@H]1O [UDP-2,4-diacetamido-2,4,6-trideoxy-α-D-glucose, reference compound]
NDP removal by LegG ([1]; quantity of LegG increased 10-fold, 90 min 37° C. then 16 h 25° C., CE): UDP removal was observed
formation of IX by LegG ([1]; similar conditions (4 μg LegG)): IX was not observed

N[C@H]1[C@@H](OP(=O)(O)O)O[C@H](CO)[C@@H](O)[C@@H]1O [III, α-D-glucosamine-1-phosphate]
PtmE activity with sugar-1-P acceptor [2]: activity was observed
PtmE NTP donor specificity with this sugar acceptor ([2]; NTP = CTP, GTP or TTP): absolutely specific for GTP

CC(=O)N[C@H]1[C@@H](OP(=O)(O)OP(=O)(O)OC[C@H]2O[C@@H](n3cnc4c(=O)[nH]c(N)nc43)[C@H](O)[C@@H]2O)O[C@H](CO)[C@@H](O)[C@@H]1O [V, GDP-N-acetyl-α-D-glucosamine]
LegB C4,6 dehydration of substrate ([3]; NAD+ added exogenously): efficient turnover
LegB C4,6 dehydration of substrate ([3]; reaction with substrate and LegB only, no exogenous NAD(P)+): failed
LegG turnover of substrate assessed by CE [1]: moderate efficiency

N[C@H]1C(OP(=O)(O)O)O[C@H](CO)[C@H](O)[C@@H]1O (some centres unmarked) [GalN-1-P]
PtmE activity with sugar-1-P acceptor [2]: no activity was observed

Source: patent US9157105B2, “Biosynthesis of CMP-legionaminic acid from fructose-6-P, and respective pathway intermediates, using novel GDP-linked precursors” (priority 2008, dated 2015)
